Consider one compound from patent US9265810B2, “Pharmaceutical composition and methods for modulating immune system, preventing, pretreating and/or treating cancers” (Hong Kong Baptist University, priority 2013, dated 2016).

This assay concerns 4T1 murine mammary cancer cells.

Protocol: In this example, the average body weight of mice is 20 g; and the doses of Taxol and RAP are 20 mg/kg, and 40 mg/kg, respectively.

Turning to `CC(=O)O[C@H]1C(=O)[C@@]2(C)[C@H]([C@H](OC(=O)c3ccccc3)[C@]3(O)C[C@H](OC(=O)[C@H](O)[C@@H](NC(=O)c4ccccc4)c4ccccc4)C(C)=C1C3(C)C)[C@]1(OC(C)=O)CO[C@@H]1C[C@@H]2O` [Taxol, paclitaxel], the “survival rate at Day 55” value (Day 55) turned out to be 30%. The “anticancer effect compared to control group” value (RAP 40 mg/kg/day gavage since day 0, Taxol 20 mg/kg/week i.p. since day 17, tumor cells at day 7) is recorded as “significant anticancer effect”. Further, the “death at day 50” value (day 50, when all the mice of Control group died) is given as “no death occurred”.
